Literature values in patent US20240207217A1, “IMPROVED TREATMENT METHODS FOR CABAZITAXEL” (ORBICULAR PHARMACEUTICAL TECHNOLOGIES PRIVATE LIMITED, priority 2020, published 2024).
Entries after “also recorded” stand apart in the source; their conditions may differ.

Key:
[1] = test system: complement; settings: enzyme-linked immunosorbent assays
[2] = clinical trials in patients with cancer
[3] = IV administration; high clearance and small Vd

Compound | Solubility in water | Complement activation in vitro (in words) [1] | Incidence of infusion-site adverse events (ISAEs) [2] | Half-life (t ½) [3]
CO[C@H]1C(=O)[C@]2(C)[C@@H](OC)C[C@H]3OC[C@@]3(OC(C)=O)[C@H]2[C@H](OC(=O)c2ccccc2)[C@]2(O)C[C@H](OC(=O)[C@H](O)[C@@H](NC(=O)OC(C)(C)C)c3ccccc3)C(C)=C1C2(C)C [cabazitaxel] | poorly soluble |  |  | 
Poly-oxyethylene-sorbitan monooleate [polysorbate 80] |  | cause complement activation; also recorded: could activate the complement system |  | 
CC(=O)O[C@@]12CO[C@@H]1C[C@H](O)[C@@]1(C)C(=O)[C@H](O)C3=C(C)[C@@H](OC(=O)[C@H](O)[C@@H](NC(=O)OC(C)(C)C)c4ccccc4)C[C@@](O)([C@@H](OC(=O)c4ccccc4)[C@H]21)C3(C)C [docetaxel] | poorly soluble | cause complement activation | 3-4% | 
sulfobutyl-ether-beta-cyclodextrin [SBCD] |  |  |  | quite short
CC(=O)O[C@H]1C(=O)[C@@]2(C)[C@H]([C@H](OC(=O)c3ccccc3)[C@]3(O)C[C@H](OC(=O)[C@H](O)[C@@H](NC(=O)c4ccccc4)c4ccccc4)C(C)=C1C3(C)C)[C@]1(OC(C)=O)CO[C@@H]1C[C@@H]2O [paclitaxel] | poorly soluble |  |  | 
